Measurements from US8653100B2 (AbbVie Inc., priority 2008, dated 2014).
Counter-ions that a name gives are not always drawn.

Tests used:
[1] = biological target: human GlyT1c (Homo sapiens (Human), UniProt P48067); test: [3H]-Glycine uptake into recombinant CHO cells expressing human GlyT1; assay type: cell-based; settings: hGlyT1c_5_CHO cells, 200 nM [3H]-glycine
Outline: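 hGlyT1c-expressing CHO cells plated at 20,000 cells/well and cultured 24 h; [3H]-glycine incorporation read continuously by solid-phase scintillation for up to 3 h. IC50 from four-parameter logistic fit using the linear uptake phase between 60 and 120 min.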

[2] = biological target: human GlyT1c transporter (Homo sapiens (Human), UniProt P48067); test: Radioligand binding assay using recombinant CHO cell membranes expressing human GlyT1; settings: examples 88-204, radioligand not specified by footnote, read-out: radioligand binding Kiapp
Chain of human GlyT1c transporter (P48067 whole entry): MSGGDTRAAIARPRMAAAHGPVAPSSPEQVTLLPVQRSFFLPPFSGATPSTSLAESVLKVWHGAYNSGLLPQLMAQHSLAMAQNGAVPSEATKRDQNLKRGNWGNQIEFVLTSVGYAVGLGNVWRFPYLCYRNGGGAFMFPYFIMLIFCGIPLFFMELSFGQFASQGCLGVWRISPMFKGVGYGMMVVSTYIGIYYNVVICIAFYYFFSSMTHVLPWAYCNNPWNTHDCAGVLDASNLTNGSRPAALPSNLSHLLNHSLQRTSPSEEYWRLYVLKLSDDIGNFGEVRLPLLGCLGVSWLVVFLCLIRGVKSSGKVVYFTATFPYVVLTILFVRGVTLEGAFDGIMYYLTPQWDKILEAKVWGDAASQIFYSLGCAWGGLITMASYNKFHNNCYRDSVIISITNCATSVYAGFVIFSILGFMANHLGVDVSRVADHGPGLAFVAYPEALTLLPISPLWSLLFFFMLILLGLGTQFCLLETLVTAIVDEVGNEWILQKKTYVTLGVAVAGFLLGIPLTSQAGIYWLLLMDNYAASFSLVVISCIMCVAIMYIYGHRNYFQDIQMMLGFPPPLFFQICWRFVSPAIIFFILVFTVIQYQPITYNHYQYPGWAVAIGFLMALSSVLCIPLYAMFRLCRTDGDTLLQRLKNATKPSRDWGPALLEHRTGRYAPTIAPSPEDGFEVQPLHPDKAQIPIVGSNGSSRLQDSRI
Outline: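 Competition binding of [^3H]-(R)-NPTS (0.5 nM) to CHO membranes expressing human GlyT1c (50 μg/ml protein) in pH 7.5 Hepes/NaCl buffer with 1% DMSO, 1 h at room temperature. Non-specific binding defined with 10 μM Org24598; filtration and scintillation counting, one-site fit, Ki via Cheng-Prusoff.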

Chain of human GlyT1c (P48067 whole entry): as above

Compound	Ki [2] [µM]	IC50 [1] [µM]	IC50 ([1]; hydrochloride) [µM]
O=S(=O)(NCCOc1ccc2c(c1)[C@@H](C1(c3ccc(Cl)cc3)CCC1)NCC2)c1cccnc1 [Example 182, N-[2-({(1R)-1-[1-(4-Chlorophenyl)cyclobutyl]-1,2,3,4-tetrahydroisoquinolin-7-yl}oxy)ethyl]pyridine-3-sulfonamide hydrochloride]	≤ 10		≤ 10
CC(C)NCCCS(=O)(=O)NCCOc1ccc2c(c1)C(C1(c3ccc(Cl)cc3)CCC1)NCC2 (stereo not drawn) [Example 197, N-[2-({1-[1-(4-Chlorophenyl)cyclobutyl]-1,2,3,4-tetrahydroisoquinolin-7-yl}oxy)ethyl]-3-(propan-2-ylamino)propane-1-sulfonamide (2E)-but-2-enedioate]	≤ 10	≤ 100	
O=S(=O)(CCCN1CCCCC1)NCCOc1ccc2c(c1)C(C1(c3ccc(Cl)cc3)CCC1)NCC2 (stereo not drawn) [Example 200, N-[2-({1-[1-(4-Chlorophenyl)cyclobutyl]-1,2,3,4-tetrahydroisoquinolin-7-yl}oxy)ethyl]-3-(piperidin-1-yl)propane-1-sulfonamide (2E)-but-2-enedioate]	≤ 100	≤ 10	
O=S(=O)(CCCN1CCOCC1)NCCOc1ccc2c(c1)C(C1(c3ccc(Cl)cc3)CCC1)NCC2 (stereo not drawn) [Example 201, N-[2-({1-[1-(4-Chlorophenyl)cyclobutyl]-1,2,3,4-tetrahydroisoquinolin-7-yl}oxy)ethyl]-3-(morpholin-4-yl)propane-1-sulfonamide (2E)-but-2-enedioate]	≤ 100	≤ 100	
CCNC(=O)NCCS(=O)(=O)NCCOc1ccc2c(c1)C(C1(c3ccc(Cl)cc3)CCC1)NCC2 (stereo not drawn) [Example 202, N-[2-({1-[1-(4-Chlorophenyl)cyclobutyl]-1,2,3,4-tetrahydroisoquinolin-7-yl}oxy)ethyl]-2-[(ethylcarbamoyl)amino]ethanesulfonamide (2E)-but-2-enedioate]	≤ 100	≤ 10	

Second part, led by results:

Ki [2] [µM]	IC50 [1] [µM]	Compound	IC50 ([1]; hydrochloride) [µM]
≤ 10	≤ 10	CCCN1CCN(S(=O)(=O)NCCOc2ccc3c(c2)C(C2(c4ccc(Cl)cc4)CCC2)NCC3)CC1 (stereo not drawn) [Example 183, N-[2-({1-[1-(4-Chlorophenyl)cyclobutyl]-1,2,3,4-tetrahydroisoquinolin-7-yl}oxy)ethyl]-4-propylpiperazine-1-sulfonamide dihydrochloride]	
≤ 10	≤ 10	CCCNCCCS(=O)(=O)NCCOc1ccc2c(c1)C(C1(c3ccc(Cl)cc3)CCC1)NCC2 (stereo not drawn) [Example 186, N-[2-({1-[1-(4-Chlorophenyl)cyclobutyl]-1,2,3,4-tetrahydroisoquinolin-7-yl}oxy)ethyl]-3-(propylamino)propane-1-sulfonamide (2E)-but-2-enedioate]	
≤ 10	≤ 10	CCNCCCS(=O)(=O)NCCOc1ccc2c(c1)C(C1(c3ccc(Cl)cc3)CCC1)NCC2 (stereo not drawn) [Example 187, N-[2-({1-[1-(4-Chlorophenyl)cyclobutyl]-1,2,3,4-tetrahydroisoquinolin-7-yl}oxy)ethyl]-3-(ethylamino)propane-1-sulfonamide]	
≤ 10	≤ 10	CCN(CC)CCCS(=O)(=O)NCCOc1ccc2c(c1)C(C1(c3ccc(Cl)cc3)CCC1)NCC2 (stereo not drawn) [Example 194, N-[2-({1-[1-(4-Chlorophenyl)cyclobutyl]-1,2,3,4-tetrahydroisoquinolin-7-yl}oxy)ethyl]-3-(diethylamino)propane-1-sulfonamide]	
